These compounds were tested against factor B (Homo sapiens, UniProt P00751) (assay: factor B inhibition assay of Biological Example 1). Settings: IC50 (nM), assay of Biological Example 1 (Table 1).
factor B, sequence (P00751 260-764 limits assumed): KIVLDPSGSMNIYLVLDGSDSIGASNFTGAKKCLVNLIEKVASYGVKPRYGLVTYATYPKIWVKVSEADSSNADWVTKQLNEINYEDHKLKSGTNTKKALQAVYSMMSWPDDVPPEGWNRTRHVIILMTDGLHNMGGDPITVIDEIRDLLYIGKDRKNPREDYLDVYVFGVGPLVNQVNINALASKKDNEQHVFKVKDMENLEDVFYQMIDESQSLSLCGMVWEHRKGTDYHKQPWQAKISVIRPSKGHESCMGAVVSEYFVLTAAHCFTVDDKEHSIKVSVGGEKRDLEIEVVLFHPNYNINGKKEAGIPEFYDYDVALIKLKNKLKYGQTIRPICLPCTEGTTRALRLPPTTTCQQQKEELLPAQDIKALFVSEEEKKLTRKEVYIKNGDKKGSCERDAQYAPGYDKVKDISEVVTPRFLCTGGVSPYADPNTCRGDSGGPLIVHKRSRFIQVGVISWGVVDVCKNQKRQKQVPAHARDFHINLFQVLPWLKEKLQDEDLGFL
factor B, sequence (Q91132 23-649 partner limits assumed): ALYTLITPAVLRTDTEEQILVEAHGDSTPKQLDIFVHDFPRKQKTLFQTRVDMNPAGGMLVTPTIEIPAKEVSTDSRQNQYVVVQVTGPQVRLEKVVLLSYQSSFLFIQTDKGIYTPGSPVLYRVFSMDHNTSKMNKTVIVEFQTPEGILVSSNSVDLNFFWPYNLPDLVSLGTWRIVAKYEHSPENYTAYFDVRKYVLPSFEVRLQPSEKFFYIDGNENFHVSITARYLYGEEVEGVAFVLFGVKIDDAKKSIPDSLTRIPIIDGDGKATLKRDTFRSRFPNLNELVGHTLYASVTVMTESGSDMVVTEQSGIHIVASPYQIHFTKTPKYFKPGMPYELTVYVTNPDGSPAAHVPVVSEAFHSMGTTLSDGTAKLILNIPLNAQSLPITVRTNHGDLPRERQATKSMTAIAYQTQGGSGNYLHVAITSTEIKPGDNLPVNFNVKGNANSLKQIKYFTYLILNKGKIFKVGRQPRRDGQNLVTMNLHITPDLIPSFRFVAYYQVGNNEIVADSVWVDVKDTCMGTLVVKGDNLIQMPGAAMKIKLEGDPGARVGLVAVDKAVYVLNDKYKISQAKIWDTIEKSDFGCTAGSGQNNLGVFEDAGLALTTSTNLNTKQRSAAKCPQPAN
factor B, sequence (Q91132 733-984 partner limits assumed): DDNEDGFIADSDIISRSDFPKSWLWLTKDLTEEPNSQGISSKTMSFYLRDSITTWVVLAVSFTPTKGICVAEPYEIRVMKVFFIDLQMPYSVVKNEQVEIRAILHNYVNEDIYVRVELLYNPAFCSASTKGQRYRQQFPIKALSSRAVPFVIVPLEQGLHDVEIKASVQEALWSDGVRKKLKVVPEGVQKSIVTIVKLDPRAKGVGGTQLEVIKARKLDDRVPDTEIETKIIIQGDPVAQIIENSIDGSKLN
factor B, sequence (Q91132 1264-1642 partner limits assumed): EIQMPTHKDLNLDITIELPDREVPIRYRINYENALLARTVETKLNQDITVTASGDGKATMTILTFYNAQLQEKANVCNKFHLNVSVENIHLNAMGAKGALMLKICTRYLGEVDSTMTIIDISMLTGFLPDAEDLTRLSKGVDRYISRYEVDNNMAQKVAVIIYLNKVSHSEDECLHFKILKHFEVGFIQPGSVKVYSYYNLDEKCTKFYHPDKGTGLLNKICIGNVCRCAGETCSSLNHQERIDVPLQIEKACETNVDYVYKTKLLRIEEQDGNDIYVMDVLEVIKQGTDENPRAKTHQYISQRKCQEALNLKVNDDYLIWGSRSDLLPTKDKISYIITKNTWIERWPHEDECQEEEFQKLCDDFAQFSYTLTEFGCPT
Assay type: biochemical
Parameters: CVF-Bb complex prepared from purified cobra venom factor (1 μM), recombinant human complement factor B; made in house; host or cells: drosophila cells (factor B); E. coli (factor D used to form the complex)
CCc1cc(C)c2[nH]ccc2c1C(OCC(=O)O)(c1nc2cc(C#N)ccc2[nH]1)C(F)(F)F (racemic) [Example 109-B, (±)-2-(1-(5-cyano-1H-benzo[d]imidazol-2-yl)-1-(5-ethyl-7-methyl-1H-indol-4-yl)-2,2,2-trifluoroethoxy)acetic acid] gave an IC50 of 30 nM.
Compound Cc1cc(C)c2[nH]ccc2c1C(N)c1nc2ccc(C#N)cc2[nH]1 (single isomer, unassigned; (+)) [95-B b) (+), (+)-2-(amino(5,7-dimethyl-1H-indol-4-yl)methyl)benzo[d]imidazole-5-carbonitrile] has an IC50 of 2140 nM.
For CCc1cc(C)c2[nH]ccc2c1C(=O)c1nc2cc(C#N)ccc2[nH]1 [Example 78, 2-(5-Ethyl-7-methyl-1H-indole-4-carbonyl)-1H-benzo[d]imidazole-5-carbonitrile], the IC50 was 640 nM.
In the case of COc1cc(C)c2[nH]cc(Cl)c2c1C(C)(O)c1nc2cc(C#N)ccc2[nH]1 (single isomer, unassigned) [Example 29-B, (+) or (−)-2-(1-(3-chloro-5-methoxy-7-methyl-1H-indol-4-yl)-1-hydroxyethyl)-1H-benzo[d]imidazole-5-carbonitrile], the IC50 is reported as 2570 nM.
Cc1cc(C)c2[nH]ccc2c1Cc1nc2c(C)c(C#N)ccc2[nH]1 [Example 63-E] gave an IC50 of 320 nM.
Cc1cc(OC(C)C)c(C(C)(O)c2nc3cc(C#N)ccc3[nH]2)c2cc[nH]c12 (single isomer, unassigned; (-)) [26-E b) (−), (−)-2-(1-hydroxy-1-(5-isopropoxy-7-methyl-1H-indol-4-yl)ethyl)-1H-benzo[d]imidazole-5-carbonitrile] was tested, and the IC50 was 170 nM.
With Cc1cc(OC(C)C)c(C(N)c2nc3cc(C#N)ccc3[nH]2)c2cc[nH]c12 (racemic) [Example 40, (±)-2-(Amino(5-isopropoxy-7-methyl-1H-indol-4-yl)methyl)-1H-benzo[d]imidazole-5-carbonitrile] the IC50 was 50 nM.
Work on CCOc1cc(C)c2[nH]ccc2c1C(CN)c1nc2cc(C#N)ccc2[nH]1 (racemic) [Example 44-C, (±)-2-(2-amino-1-(5-ethoxy-7-methyl-1H-indol-4-yl)ethyl)-1H-benzo[d]imidazole-5-carbonitrile] yielded an IC50 of 870 nM.
Work on Cc1cc(C(C)C)c(C(O)c2nc3cc(C#N)ccc3[nH]2)c2cc[nH]c12 (single isomer, unassigned; (-)) [67-D b) (−), (−)-2-(hydroxy(5-isopropyl-7-methyl-1H-indol-4-yl)methyl)-1H-benzo[d]imidazole-5-carbonitrile] yielded an IC50 of 60 nM.
Work on CCc1cc(C)c2[nH]ccc2c1C(C)(O)c1nc2cc(C#N)ccc2[nH]1 (single isomer, unassigned; (+)) [77-C b) (+), (+)-2-(1-(5-ethyl-7-methyl-1H-indol-4-yl)-1-hydroxyethyl)-1H-benzo[d]imidazole-5-carbonitrile] yielded an IC50 of 40 nM.
Compound Cc1cc(CO)c(Cc2nc3cc(C#N)ccc3[nH]2)c2cc[nH]c12 [Example 59-C, 2-((5-(Hydroxymethyl)-7-methyl-1H-indol-4-yl)methyl)-1H-benzo[d]imidazole-5-carbonitrile] has an IC50 of 1760 nM.
Work on COC(C)(c1nc2cc(C#N)ccc2[nH]1)c1c(OC(F)F)cc(C)c2[nH]ccc12 (single isomer, unassigned; (-)) [8-B b) (−), (−)-2-(1-(5-(difluoromethoxy)-7-methyl-1H-indol-4-yl)-1-methoxyethyl)-1H-benzo[d]imidazole-5-carbonitrile] yielded an IC50 of 900 nM.
For [2H]C([2H])([2H])Oc1cc(Cl)c2[nH]ccc2c1Cc1nc2cc(C#N)ccc2[nH]1 [Example 22, 2-((7-Chloro-5-(^2H3)methoxy-1H-indol-4-yl)methyl)-1H-benzo[d]imidazole-5-carbonitrile], the IC50 was 1140 nM.
With Cc1cc(C)c2[nH]ccc2c1Cc1nc2cc(C#N)cc(F)c2[nH]1 [Example 62-B, 2-((5,7-Dimethyl-1H-indol-4-yl)methyl)-7-fluoro-1H-benzo[d]imidazole-5-carbonitrile] the IC50 was 7610 nM.
In the case of CCOC(c1nc2cc(C#N)ccc2[nH]1)c1c(C)cc(C)c2[nH]ccc12 (racemic) [Example 73, (±)-2-((5,7-Dimethyl-1H-indol-4-yl)(ethoxy)methyl)-1H-benzo[d]imidazole-5-carbonitrile], the IC50 is reported as 1270 nM.
CCc1cc(C)c2[nH]cc(-c3ccn[nH]3)c2c1Cc1nc2cc(C#N)ccc2[nH]1 [Example 116-F, 2-((5-Ethyl-7-methyl-3-(1H-pyrazol-5-yl)-1H-indol-4-yl)methyl)-1H-benzo[d]imidazole-5-carbonitrile] was tested, and the IC50 was 190 nM.
Cc1cc(CC(C)C)c(C(O)c2nc3cc(C#N)ccc3[nH]2)c2cc[nH]c12 (single isomer, unassigned; (-)) [67-C b) (−), (−)-2-(hydroxy(5-(isobutyl)-7-methyl-1H-indol-4-yl)methyl)-1H-benzo[d]imidazole-5-carbonitrile] showed an IC50 of 6750 nM.
With Cc1cc(C)c2[nH]ccc2c1C(O)(c1nc2cc(C#N)ccc2[nH]1)C(F)(F)F (single isomer, unassigned; (-)) [80-D b) (−), (−)-2-(1-(5,7-dimethyl-1H-indol-4-yl)-2,2,2-trifluoro-1-hydroxyethyl)-1H-benzo[d]imidazole-5-carbonitrile] the IC50 was 70 nM.
Cc1cc(OCC2CC2)c(C(C)(O)c2nc3cc(C#N)ccc3[nH]2)c2cc[nH]c12 (single isomer, unassigned; (+)) [26-G b) (+), (+)-2-(1-(5-(cyclopropylmethoxy)-7-methyl-1H-indol-4-yl)-1-hydroxyethyl)-1H-benzo[d]imidazole-5-carbonitrile] was tested, and the IC50 was 4950 nM.
With CCc1cc(C)c2[nH]ccc2c1C(C)(OC)c1nc2cc(C#N)ccc2[nH]1 (single isomer, unassigned; (-)) [84-C b) (−), (−)-2-(1-(5-ethyl-7-methyl-1H-indol-4-yl)-1-methoxyethyl)-1H-benzo[d]imidazole-5-carbonitrile] the IC50 was 10 nM.
Work on COC(C)(c1nc2cc(C#N)ccc2[nH]1)c1c(OC(F)F)cc(C)c2[nH]ccc12 (single isomer, unassigned; (+)) [8-B b) (+), (+)-2-(1-(5-(difluoromethoxy)-7-methyl-1H-indol-4-yl)-1-methoxyethyl)-1H-benzo[d]imidazole-5-carbonitrile] yielded an IC50 of 10 nM.
With Cc1cc(Cl)c(C(O)c2nc3cc(C#N)ccc3[nH]2)c2cc[nH]c12 (single isomer, unassigned; (+)) [67-E b) (+), (+)-2-((5-chloro-7-methyl-1H-indol-4-yl)(hydroxy)methyl)-1H-benzo[d]imidazole-5-carbonitrile] the IC50 was 2080 nM.
Compound Cc1cc(Cl)c(C(O)c2nc3cc(C#N)ccc3[nH]2)c2cc[nH]c12 (single isomer, unassigned; (-)) [67-E b) (−), (−)-2-((5-chloro-7-methyl-1H-indol-4-yl)(hydroxy)methyl)-1H-benzo[d]imidazole-5-carbonitrile] has an IC50 of 1180 nM.
Cc1cc(Br)c(C(N)(c2nc3cc(C#N)ccc3[nH]2)C(F)(F)F)c2cc[nH]c12 (single isomer, unassigned; (+)) [105-B b) (+), (+)-2-(1-amino-1-(5-bromo-7-methyl-1H-indol-4-yl)-2,2,2-trifluoroethyl)-1H-benzo[d]imidazole-5-carbonitrile] was tested, and the IC50 was 90 nM.
Cc1cc(S(C)(=O)=O)c(C(N)c2nc3cc(C#N)ccc3[nH]2)c2cc[nH]c12 (single isomer, unassigned) [18-D (+), 2-(amino(7-methyl-5-(methylsulfonyl)-1H-indol-4-yl)methyl)-1H-benzo[d]imidazole-5-carbonitrile] was tested, and the IC50 was 1240 nM.
In the case of CCc1cc(C)c2[nH]ccc2c1C(NC)(c1nc2cc(C#N)ccc2[nH]1)C(F)(F)F (single isomer, unassigned; (+)) [107-B b) (+), (+)-2-(1-(5-ethyl-7-methyl-1H-indol-4-yl)-2,2,2-trifluoro-1-(methylamino)ethyl)-1H-benzo[d]imidazole-5-carbonitrile], the IC50 is reported as 140 nM.
For Cc1cc(C)c2[nH]cc(-c3cnn(C)c3)c2c1C(O)c1nc2cc(C#N)ccc2[nH]1 (single isomer, unassigned) [119 b) (tr = 1.54 min), (+)- or (−)-2-((5,7-dimethyl-3-(1-methyl-1H-pyrazol-4-yl)-1H-indol-4-yl)(hydroxy)methyl)-1H-benzo[d]imidazole-5-carbonitrile], the IC50 was 130 nM.
In the case of Cc1cc(C)c2[nH]cc(-c3ccccc3)c2c1C(O)c1nc2cc(C#N)ccc2[nH]1 (single isomer, unassigned) [118-C b) (tr = 7.9 min), (−) or (+)-2-((5,7-dimethyl-3-phenyl-1H-indol-4-yl)(hydroxy)methyl)-1H-benzo[d]imidazole-5-carbonitrile], the IC50 is reported as 1750 nM.
Cc1cc(C)c2[nH]cc(Br)c2c1Cc1nc2cc(C#N)ccc2[nH]1 [Example 85, 2-((3-bromo-5,7-dimethyl-1H-indol-4-yl)methyl)-1H-benzo[d]imidazole-5-carbonitrile] gave an IC50 of 220 nM.
With Cc1cc(OC(F)F)c(C(C)(O)c2nc3cc(C#N)ccc3[nH]2)c2c(Cl)c[nH]c12 (single isomer, unassigned) [Example 7, (+) or (−)-2-(1-(3-chloro-5-(difluoromethoxy)-7-methyl-1H-indol-4-yl)-1-hydroxyethyl)-1H-benzo[d]imidazole-5-carbonitrile] the IC50 was 4240 nM.
COc1cc(C)c2[nH]ccc2c1C(c1nc2cc(C#N)ccc2[nH]1)N(C)C (racemic) [Example 43-C, (±)-2-((Dimethylamino)(5-methoxy-7-methyl-1H-indol-4-yl)methyl)-1H-benzo[d]imidazole-5-carbonitrile] gave an IC50 of 1180 nM.
Work on Cc1cc(Br)c(C(C)(O)c2nc3cc(C#N)ccc3[nH]2)c2cc[nH]c12 (single isomer, unassigned) [79-F b) (tr = 3.8 min), (−) or (+)-2-(1-(5-bromo-7-methyl-1H-indol-4-yl)-1-hydroxyethyl)-1H-benzo[d]imidazole-5-carbonitrile] yielded an IC50 of 270 nM.

Same assay, conditions: assay of Biological Example 1 (Table 1), read-out: IC50
With “(+) or (−)-2-(1-methoxy-1-(7-methyl-5-(methylsulfonyl)-1H-indol-4-yl)ethyl)-1H-benzo[d]imidazole-5-carbonitrile [12-B b) (tr = 3.5 min)]” the IC50 was 13800 nM.

Reference: US9056874B2, “Complement pathway modulators and uses thereof” (NOVARTIS AG, priority 2012, dated 2015)
